Tests used:
Test in all cases: SelectScreen kinase profiling, SSBK ZLyte SP Technology
Type in all cases: biochemical
[1] = biological target: kinase named in conditions (Homo sapiens, UniProt O14920); details: IKBKB (IKK beta), 10 μM
Method: (§1) Kinase selectivity screening was performed by Thermo Fisher Scientific (Paisley, U.K.) in their SelectScreen Biochemical Kinase Profiling Service. Assay information and data are presented in the Supporting Information.
(§2) Kinase selectivity screening was performed by ThermoFisher Scientific (Paisley, U.K.) in their SelectScreenTM
(§3) Biochemical Kinase Profiling service .

[2] = biological target: kinase named in conditions (Homo sapiens, UniProt O60674)
Method: as §1, §2, §3

[3] = biological target: kinase named in conditions (Homo sapiens, UniProt O94806); details: PRKCN (PKD3), 10 μM
Method: as §1, §2, §3

[4] = biological target: kinase named in conditions (Homo sapiens, UniProt P00519); details: ABL1, 10 μM
Method: as §1, §2, §3

[5] = biological target: kinase named in conditions (Homo sapiens, UniProt P00519, T315I); details: ABL1 T315I, 10 μM
Method: as §1, §2, §3

[6] = biological target: kinase named in conditions (Homo sapiens, UniProt P00533, C797S/L858R/T790M); details: EGFR (ErbB1) T790M C797S L858R, 10 μM
Method: as §1, §2, §3

[7] = biological target: kinase named in conditions (Homo sapiens, UniProt P00533, G719C); details: EGFR (ErbB1) G719C, 10 μM
Method: as §1, §2, §3

[8] = biological target: kinase named in conditions (Homo sapiens, UniProt P00533, G719S); details: EGFR (ErbB1) G719S, 10 μM
Method: as §1, §2, §3

[9] = biological target: kinase named in conditions (Homo sapiens, UniProt P05771); details: PRKCB1 (PKC beta I), 10 μM
Method: as §1, §2, §3

[10] = biological target: kinase named in conditions (Homo sapiens, UniProt P06239); details: LCK, 10 μM
Method: as §1, §2, §3

[11] = biological target: kinase named in conditions (Homo sapiens, UniProt P07333); details: CSF1R (FMS), 10 μM
Method: as §1, §2, §3

[12] = biological target: kinase named in conditions (Homo sapiens, UniProt P07949, Y791F); details: RET Y791F, 10 μM
Method: as §1, §2, §3

[13] = biological target: kinase named in conditions (Homo sapiens, UniProt P10721); details: KIT, 10 μM
Method: as §1, §2, §3

[14] = biological target: kinase named in conditions (Homo sapiens, UniProt P21709); details: EPHA1, 10 μM
Method: as §1, §2, §3

[15] = biological target: kinase named in conditions (Homo sapiens, UniProt P23458); details: JAK1, 10 μM
Method: as §1, §2, §3

[16] = biological target: kinase named in conditions (Homo sapiens, UniProt P35626); details: ADRBK2 (GRK3), 10 μM
Method: as §1, §2, §3

[17] = biological target: kinase named in conditions (Homo sapiens, UniProt P43403); details: ZAP70, 10 μM
Method: as §1, §2, §3

[18] = biological target: kinase named in conditions (Homo sapiens, UniProt P43405); details: SYK, 10 μM
Method: as §1, §2, §3

[19] = biological target: kinase named in conditions (Homo sapiens, UniProt P53779); details: MAPK10 (JNK3), 10 μM
Method: as §1, §2, §3

[20] = biological target: kinase named in conditions (Homo sapiens, UniProt Q13131)
Method: as §1, §2, §3

[21] = biological target: kinase named in conditions (Homo sapiens, UniProt Q13153); details: PAK1, 10 μM
Method: as §1, §2, §3

[22] = biological target: kinase named in conditions (Homo sapiens, UniProt Q13188); details: STK3 (MST2), 10 μM
Method: as §1, §2, §3

[23] = biological target: kinase named in conditions (Homo sapiens, UniProt Q13882); details: PTK6 (Brk), 10 μM
Method: as §1, §2, §3

[24] = biological target: kinase named in conditions (Homo sapiens, UniProt Q14164); details: IKBKE (IKK epsilon), 10 μM
Method: as §1, §2, §3

[25] = biological target: kinase named in conditions (Homo sapiens, UniProt Q15759); details: MAPK11 (p38 beta), 10 μM
Method: as §1, §2, §3

[26] = biological target: kinase named in conditions (Homo sapiens, UniProt Q7KZI7); details: MARK2, 10 μM
Method: as §1, §2, §3

[27] = biological target: kinase named in conditions (Homo sapiens, UniProt Q8IY84); details: NIM1K, 10 μM
Method: as §1, §2, §3

[28] = biological target: kinase named in conditions (Homo sapiens, UniProt Q8N568); details: DCAMKL2 (DCK2), 10 μM
Method: as §1, §2, §3

[29] = biological target: kinase named in conditions (Homo sapiens, UniProt Q8TDC3); details: BRSK1 (SAD1), 10 μM
Method: as §1, §2, §3

[30] = biological target: kinase named in conditions (Homo sapiens, UniProt Q96BR1); details: SGKL (SGK3), 10 μM
Method: as §1, §2, §3

[31] = biological target: kinase named in conditions (Homo sapiens, UniProt Q9BUB5); details: MKNK1 (MNK1), 10 μM
Method: as §1, §2, §3

[32] = biological target: kinase named in conditions (Homo sapiens, UniProt Q9P1W9); details: PIM2, 10 μM
Method: as §1, §2, §3

[33] = biological target: kinase named in conditions (Homo sapiens, UniProt Q9P289); details: MST4, 10 μM
Method: as §1, §2, §3

[34] = biological target: kinase named in conditions (Homo sapiens, UniProt Q9UHD2); details: TBK1, 10 μM
Method: as §1, §2, §3

Sequence of kinase named in conditions (Homo sapiens, UniProt Q13131) (Q13131 whole entry): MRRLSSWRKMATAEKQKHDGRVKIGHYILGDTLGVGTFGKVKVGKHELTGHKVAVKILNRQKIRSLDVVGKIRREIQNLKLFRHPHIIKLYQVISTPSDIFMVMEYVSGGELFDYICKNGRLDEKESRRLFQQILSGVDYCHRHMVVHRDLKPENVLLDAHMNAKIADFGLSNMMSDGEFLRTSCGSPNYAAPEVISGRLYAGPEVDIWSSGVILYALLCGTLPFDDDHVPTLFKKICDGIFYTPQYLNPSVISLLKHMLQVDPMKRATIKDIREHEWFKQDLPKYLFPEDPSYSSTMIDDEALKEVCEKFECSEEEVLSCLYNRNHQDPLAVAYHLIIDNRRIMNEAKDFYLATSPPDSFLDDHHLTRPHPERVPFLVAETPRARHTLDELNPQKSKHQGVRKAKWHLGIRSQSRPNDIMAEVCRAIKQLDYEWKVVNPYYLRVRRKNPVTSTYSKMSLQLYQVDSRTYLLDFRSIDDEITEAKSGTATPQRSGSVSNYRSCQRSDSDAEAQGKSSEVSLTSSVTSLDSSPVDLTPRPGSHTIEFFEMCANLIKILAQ
Sequence of kinase named in conditions (Homo sapiens, UniProt O60674) (O60674 whole entry): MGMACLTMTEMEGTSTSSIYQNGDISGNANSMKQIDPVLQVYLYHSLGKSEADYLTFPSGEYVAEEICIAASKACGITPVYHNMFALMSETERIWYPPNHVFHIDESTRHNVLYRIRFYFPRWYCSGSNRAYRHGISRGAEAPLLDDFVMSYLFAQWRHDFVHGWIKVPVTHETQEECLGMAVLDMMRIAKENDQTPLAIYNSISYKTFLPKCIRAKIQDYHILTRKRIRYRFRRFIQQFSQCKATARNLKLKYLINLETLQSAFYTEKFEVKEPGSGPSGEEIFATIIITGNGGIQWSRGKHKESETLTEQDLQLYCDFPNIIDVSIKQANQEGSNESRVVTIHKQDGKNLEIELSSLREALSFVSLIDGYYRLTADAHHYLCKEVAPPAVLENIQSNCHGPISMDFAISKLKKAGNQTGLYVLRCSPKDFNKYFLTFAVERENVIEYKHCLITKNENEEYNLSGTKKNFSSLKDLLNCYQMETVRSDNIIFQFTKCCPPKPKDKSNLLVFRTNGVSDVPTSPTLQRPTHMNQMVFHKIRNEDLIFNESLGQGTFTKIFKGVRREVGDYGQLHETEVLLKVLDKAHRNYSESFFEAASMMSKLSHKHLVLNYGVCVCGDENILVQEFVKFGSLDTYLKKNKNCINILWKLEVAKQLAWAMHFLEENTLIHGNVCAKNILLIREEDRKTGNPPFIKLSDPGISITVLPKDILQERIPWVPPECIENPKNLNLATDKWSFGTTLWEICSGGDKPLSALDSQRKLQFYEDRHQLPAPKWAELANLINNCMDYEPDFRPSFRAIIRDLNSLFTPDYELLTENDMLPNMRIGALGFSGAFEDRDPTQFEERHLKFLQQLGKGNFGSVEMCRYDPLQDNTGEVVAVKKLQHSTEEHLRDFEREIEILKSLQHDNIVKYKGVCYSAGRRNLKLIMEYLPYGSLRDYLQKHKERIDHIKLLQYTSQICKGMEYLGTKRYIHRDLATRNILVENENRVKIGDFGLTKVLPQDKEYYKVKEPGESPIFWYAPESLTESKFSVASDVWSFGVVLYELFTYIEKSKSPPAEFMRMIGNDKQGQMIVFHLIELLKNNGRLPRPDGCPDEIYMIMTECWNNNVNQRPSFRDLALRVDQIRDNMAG
Sequence of kinase named in conditions (Homo sapiens, UniProt Q13882) (Q13882 whole entry): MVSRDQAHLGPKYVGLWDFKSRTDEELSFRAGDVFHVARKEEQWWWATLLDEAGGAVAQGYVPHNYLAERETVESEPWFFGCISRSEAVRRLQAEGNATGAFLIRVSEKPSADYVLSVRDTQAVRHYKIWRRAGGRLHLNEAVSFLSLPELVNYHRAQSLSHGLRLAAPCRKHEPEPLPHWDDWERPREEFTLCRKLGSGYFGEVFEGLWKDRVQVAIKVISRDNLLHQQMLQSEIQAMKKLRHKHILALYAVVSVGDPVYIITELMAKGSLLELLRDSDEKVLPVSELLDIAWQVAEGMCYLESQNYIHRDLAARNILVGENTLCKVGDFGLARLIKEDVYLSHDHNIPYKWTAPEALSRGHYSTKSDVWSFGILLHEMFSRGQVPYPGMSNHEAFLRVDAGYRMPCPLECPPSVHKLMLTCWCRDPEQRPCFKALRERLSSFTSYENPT
Sequence of kinase named in conditions (Homo sapiens, UniProt P53779) (P53779 whole entry): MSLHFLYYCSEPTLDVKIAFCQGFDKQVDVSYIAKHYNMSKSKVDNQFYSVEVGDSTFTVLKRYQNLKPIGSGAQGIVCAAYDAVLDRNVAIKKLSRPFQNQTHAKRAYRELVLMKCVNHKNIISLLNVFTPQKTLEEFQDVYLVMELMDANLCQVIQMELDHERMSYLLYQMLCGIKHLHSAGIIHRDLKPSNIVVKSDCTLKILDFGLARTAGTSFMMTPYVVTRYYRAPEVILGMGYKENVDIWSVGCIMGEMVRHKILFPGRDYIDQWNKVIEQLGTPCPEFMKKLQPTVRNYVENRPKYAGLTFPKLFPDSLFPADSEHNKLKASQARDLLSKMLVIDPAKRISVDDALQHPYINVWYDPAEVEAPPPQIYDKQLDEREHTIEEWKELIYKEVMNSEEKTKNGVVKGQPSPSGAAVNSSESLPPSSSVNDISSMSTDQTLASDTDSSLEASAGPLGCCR
Sequence of kinase named in conditions (Homo sapiens, UniProt Q96BR1) (Q96BR1 whole entry): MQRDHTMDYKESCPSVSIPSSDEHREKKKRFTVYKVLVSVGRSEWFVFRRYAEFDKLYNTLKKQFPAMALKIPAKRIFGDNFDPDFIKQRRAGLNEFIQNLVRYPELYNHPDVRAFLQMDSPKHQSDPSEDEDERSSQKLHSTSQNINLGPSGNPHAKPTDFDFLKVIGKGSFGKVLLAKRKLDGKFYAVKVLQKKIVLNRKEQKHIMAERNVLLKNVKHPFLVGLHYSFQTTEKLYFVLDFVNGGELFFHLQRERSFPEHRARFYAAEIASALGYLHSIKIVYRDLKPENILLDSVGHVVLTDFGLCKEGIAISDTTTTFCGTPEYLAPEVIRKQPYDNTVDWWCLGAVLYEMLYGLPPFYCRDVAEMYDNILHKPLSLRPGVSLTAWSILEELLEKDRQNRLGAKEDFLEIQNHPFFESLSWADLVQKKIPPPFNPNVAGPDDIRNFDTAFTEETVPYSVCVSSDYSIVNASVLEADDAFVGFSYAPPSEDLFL
Sequence of kinase named in conditions (Homo sapiens, UniProt Q7KZI7) (Q7KZI7 whole entry): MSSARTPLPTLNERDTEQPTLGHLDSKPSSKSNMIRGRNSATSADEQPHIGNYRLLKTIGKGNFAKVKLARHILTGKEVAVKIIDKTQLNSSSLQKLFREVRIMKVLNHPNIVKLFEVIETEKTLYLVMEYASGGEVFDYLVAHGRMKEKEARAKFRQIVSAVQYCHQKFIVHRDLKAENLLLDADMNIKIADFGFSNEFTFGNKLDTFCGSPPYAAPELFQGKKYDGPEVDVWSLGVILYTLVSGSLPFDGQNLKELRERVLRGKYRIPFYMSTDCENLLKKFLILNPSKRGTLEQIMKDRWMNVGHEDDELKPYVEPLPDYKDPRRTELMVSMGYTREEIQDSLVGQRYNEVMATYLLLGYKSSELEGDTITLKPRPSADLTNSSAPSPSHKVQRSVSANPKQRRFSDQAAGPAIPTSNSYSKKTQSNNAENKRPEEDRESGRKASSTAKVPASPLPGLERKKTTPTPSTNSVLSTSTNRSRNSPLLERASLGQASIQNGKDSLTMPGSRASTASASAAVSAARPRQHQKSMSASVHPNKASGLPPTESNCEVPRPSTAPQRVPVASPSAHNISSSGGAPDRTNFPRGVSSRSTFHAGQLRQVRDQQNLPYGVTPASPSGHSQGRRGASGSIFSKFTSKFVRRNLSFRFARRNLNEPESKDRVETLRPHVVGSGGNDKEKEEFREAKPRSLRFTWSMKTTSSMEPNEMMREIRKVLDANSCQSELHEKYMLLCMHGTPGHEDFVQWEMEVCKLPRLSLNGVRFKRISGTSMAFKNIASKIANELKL
Sequence of kinase named in conditions (Homo sapiens, UniProt Q15759) (Q15759 whole entry): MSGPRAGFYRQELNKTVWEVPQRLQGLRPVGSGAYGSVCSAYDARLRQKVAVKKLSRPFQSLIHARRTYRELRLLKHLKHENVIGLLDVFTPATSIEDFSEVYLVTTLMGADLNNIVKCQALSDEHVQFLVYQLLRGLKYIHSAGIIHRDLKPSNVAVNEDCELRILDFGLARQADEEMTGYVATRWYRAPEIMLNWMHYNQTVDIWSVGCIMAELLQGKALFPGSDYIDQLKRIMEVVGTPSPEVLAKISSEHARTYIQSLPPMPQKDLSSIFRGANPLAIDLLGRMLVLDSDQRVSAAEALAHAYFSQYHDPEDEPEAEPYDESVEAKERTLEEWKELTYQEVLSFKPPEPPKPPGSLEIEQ
Sequence of kinase named in conditions (Homo sapiens, UniProt Q9P289) (Q9P289 whole entry): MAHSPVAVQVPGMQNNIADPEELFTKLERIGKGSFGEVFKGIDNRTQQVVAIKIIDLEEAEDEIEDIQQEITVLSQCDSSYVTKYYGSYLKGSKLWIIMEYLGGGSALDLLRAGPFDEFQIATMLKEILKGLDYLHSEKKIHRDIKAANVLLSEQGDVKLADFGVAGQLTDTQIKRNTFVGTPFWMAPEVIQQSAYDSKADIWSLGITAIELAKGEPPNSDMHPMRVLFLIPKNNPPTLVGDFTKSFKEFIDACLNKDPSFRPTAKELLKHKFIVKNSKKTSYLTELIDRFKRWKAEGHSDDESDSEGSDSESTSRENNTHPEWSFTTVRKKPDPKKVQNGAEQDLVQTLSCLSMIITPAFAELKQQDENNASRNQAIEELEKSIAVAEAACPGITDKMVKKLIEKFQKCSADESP
Sequence of kinase named in conditions (Homo sapiens, UniProt Q9P1W9) (Q9P1W9 whole entry): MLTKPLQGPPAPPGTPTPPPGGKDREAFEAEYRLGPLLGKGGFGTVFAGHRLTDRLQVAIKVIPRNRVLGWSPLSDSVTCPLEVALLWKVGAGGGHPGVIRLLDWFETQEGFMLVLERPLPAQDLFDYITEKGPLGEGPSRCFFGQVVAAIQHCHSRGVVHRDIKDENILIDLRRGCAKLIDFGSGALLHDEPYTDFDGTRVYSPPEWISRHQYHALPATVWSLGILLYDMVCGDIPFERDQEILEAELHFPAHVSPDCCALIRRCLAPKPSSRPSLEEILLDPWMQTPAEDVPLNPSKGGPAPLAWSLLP

## FC(F)(F)c1c(Cl)ccc(-n2ccnn2)c1Cl [8l, 1-(2,4-Dichloro-3-(trifluoromethyl)phenyl)-1H-1,2,3-triazole]
[1]
  inhibition at 10 µM: -1%
[2]; JAK2, 10 μM
  inhibition at 10 µM: 3%
[2]; JAK2 JH1 JH2, 10 μM
  inhibition at 10 µM: -1%
[3]
  inhibition at 10 µM: 6%
[4]
  inhibition at 10 µM: 19%
[5]
  inhibition at 10 µM: 0%
[6]
  inhibition at 10 µM: -17%
[7]
  inhibition at 10 µM: 5%
[8]
  inhibition at 10 µM: -1%
[9]
  inhibition at 10 µM: 0%
[10]
  inhibition at 10 µM: 33%
[11]
  inhibition at 10 µM: 6%
[12]
  inhibition at 10 µM: 5%
[13]
  inhibition at 10 µM: -7%
[14]
  inhibition at 10 µM: 4%
[15]
  inhibition at 10 µM: 2%
[16]
  inhibition at 10 µM: -1%
[17]
  inhibition at 10 µM: 24%
[18]
  inhibition at 10 µM: 6%
[19]
  inhibition at 10 µM: -1%
[20]; AMPK (A1/B2/G2), 10 μM
  inhibition at 10 µM: 6%
[20]; AMPK (A1/B2/G3), 10 μM
  inhibition at 10 µM: 6%
[20]; AMPK A1/B1/G1, 10 μM
  inhibition at 10 µM: 14%
[21]
  inhibition at 10 µM: 23%
[22]
  inhibition at 10 µM: -9%
[23]
  inhibition at 10 µM: 6%
[24]
  inhibition at 10 µM: 11%
[25]
  inhibition at 10 µM: 6%
[26]
  inhibition at 10 µM: -7%
[27]
  inhibition at 10 µM: 5%
[28]
  inhibition at 10 µM: 1%
[29]
  inhibition at 10 µM: 0%
[30]
  inhibition at 10 µM: 10%
[31]
  inhibition at 10 µM: 0%
[32]
  inhibition at 10 µM: 5%
[33]
  inhibition at 10 µM: 23%
[34]
  inhibition at 10 µM: 0%
